Source: US9974771B2 (priority 2016, dated 2018)
Where two headings read alike, the source gives them in different places.

Experiments:
[1] = system: PrP^Sc in persistently prion (strain 22L) infected ScN2a cells; assay type: cell-based, mouse
LC3-II [2] = assay type: cell-based, mouse
[3] = system: PrP^Sc in persistently prion (strain 22L) infected ScCAD5 cells; assay type: cell-based, mouse; details: AR-12 1-5 μM, 72 hours, ScCAD5 22L; FIG. 3A
[4] = system: PrP^Sc in ScMEFs infected with prion strains 22L, Me7 or RML; assay type: cell-based, mouse; details: AR-12 3 μM, 72 hours, ScMEF strains 22L, FIG. 4A
LC3-II [5] = assay type: cell-based, mouse; remark: listed apart in the source
[6] = system: PrP^Sc in Atg5-KO ScN2a cells (strain 22L); assay type: cell-based, mouse

NCC(=O)Nc1ccc(-n2nc(C(F)(F)F)cc2-c2ccc3c(ccc4ccccc43)c2)cc1 [AR-12, 2-amino-N-(4-(5-(phenanthren-2-yl)-3-(trifluoromethyl)-1H-pyrazol-1-yl)phenyl)acetamide]
reduction of PrP^Sc (+PK) ([1]; AR-12 3 μM, 3 days (72 hours), ScN2a 22L, vs DMSO, FIG. 2A): 100%
reduction of PrP^Sc (+PK) ([1]; AR-12 3 μM, 72 hours, wild-type ScN2a cells, FIG. 8B): ≥ 90%
LC3-II induction (LC3-II [2]): about 2 fold
PrP^Sc levels (+PK) [3]: reduced, although slightly less than in ScN2a cells
PrP^Sc (+PK) [4]: strongly reduced
LC3-II induction, comparison of cell lines (LC3-II [5]): lowest induction was found in CAD5 cells
LC3-II levels (LC3-II [5]): time dependent and pronounced increase in LC3-II levels
reduction of PrP^Sc (+PK) [6]: about 50%
XTT toxicity at concentrations used (ScN2a cells): non-toxic concentrations
XTT toxicity at concentrations used (ScCAD5 cells): non-toxic concentrations
XTT toxicity at concentrations used (ScMEF cells): non-toxic concentrations

NCCCC[C@H](N)C(=O)Nc1ccc(-n2nc(C(F)(F)F)cc2-c2ccc3c(ccc4ccccc43)c2)cc1 [AR-14]
reduction of PrP^Sc (+PK) ([1]; AR-14 2 μM, 72 hours, wild-type ScN2a cells, FIG. 8C): 100%
reduction of PrP^Sc (+PK) ([1]; AR-14 at a concentration of 2, 3 days (72 hours), ScN2a 22L, FIG. 5A): 100%
concentration at which already effective in reducing PrP^Sc ([1]; AR-14 tested at 0.5, 0.75 and 1.0 μM, 72 hours, ScN2a 22L, FIG. 5C): 0.75 µM
LC3-II induction, comparison of cell lines (LC3-II [5]): lowest induction was found in CAD5 cells
LC3-II levels (LC3-II [5]): time dependent and pronounced increase in LC3-II levels
reduction of PrP^Sc (+PK) [6]: about 50%
XTT toxicity at concentrations used (ScN2a cells): non-toxic concentrations

bafilomycin A1 [BA1, reference compound]
LC3-II levels (LC3-II [5]): highest expression level of LC3-II
